In general, logP refers to a log measure of how a compound divides between an organic and an aqueous phase. Read a high logP as a more lipophilic compound. In turn, `CCN(CC)C(=O)C(Cl)=C(C)OP(=O)(OC)OC` gave a logP of 1.34.

Take `C=C1C(CCl)(CCl)C2(Cl)C(Cl)C(Cl)C1(Cl)C2(Cl)Cl` (mixture of isomers): the logP is 5.5.

Regarding `CC(C)OC(=O)[C@H](C)N(C(=O)c1ccccc1)c1ccc(F)c(Cl)c1` (racemic), the logP stood at 4.41.

`COc1c(Cl)ccc(Cl)c1C(=O)O` had a logP of 3.01.

`CCOC(=O)C(C)N(C(=O)c1ccccc1)c1ccc(Cl)c(Cl)c1` (racemic) came in with a log partition coefficient (logP) of 4.57.

`COC(=O)C(C)N(C(=O)c1ccccc1)c1ccc(F)c(Cl)c1` (racemic) showed a logP of 3.48.

Take `CC(C)Oc1cc(-n2nc(C(C)(C)C)oc2=O)c(Cl)cc1Cl`: the log partition coefficient (logP) came to 4.09.

`Cc1nc(C)c(Cl)c(O)c1Cl` showed a logP of 0.5.

`Clc1ccc(-c2cc(Cl)ccc2Cl)cc1` showed a logP of 5.56.

In turn, `Brc1c(Br)c(Br)c(Br)c(Br)c1Br` displayed a logP of 6.51.

Take `ClC=C(c1ccc(Cl)cc1)c1ccc(Cl)cc1`: the lipophilicity (logP) turned out to be 5.27.

`O=C(O)COc1nc(Cl)c(Cl)cc1Cl` showed a logP of 2.09.

`COc1cc(Cl)c(OC)cc1Cl` gave a logP of 3.46.

Take `COP(=S)(OC)Oc1ccc(S(=O)(=O)N(C)C)cc1`: the logP is 2.28.
